# Results published in patent US20220054576A1, “PHARMACEUTICAL COMPOSITION COMPRISING EXTRACT FROM CAMELLIA JAPONICA AS ACTIVE INGREDIENT FOR PREVENTION AND TREATMENT OF VIRAL INFECTION” (HUSCION CO., LTD., priority 2019, published 2022).
# Legend:
# FluA H1N1 PR8 = experiment: microbe, parasite or virus in culture; assay type: cell-based; conditions: Influenza A virus, 48 h; MDCK cells, CPE inhibition, 2 days; positive controls; read-out: Antiviral activity EC50 FluA H1N1 PR8
# FluA H3N2 HongKong = experiment: microbe, parasite or virus in culture; assay type: cell-based, influenza A virus; conditions: for EC50: Influenza A virus, H3N2, 48 h, MDCK cells, CPE inhibition, 2 days, positive controls, read-out: Antiviral activity EC50 FluA H3N2 HongKong
# in vitro = conditions: dog
# FluB Lee = experiment: Cytopathic effect (CPE) inhibition test, Flu B Lee; conditions: read-out: Antiviral activity EC50 FluB Lee, MDCK cells, 2 days, positive controls
SMILES,EC50 (FluA H1N1 PR8) [µM],Selectivity index FluA H3N2 HongKong (FluA H3N2 HongKong),EC50 (FluA H3N2 HongKong) [µM],CC50 (in vitro) [µM],EC50 (FluB Lee) [µM]
"NC12CC3CC(CC(C3)C1)C2 [AMT, amantadine]",> 100,>43.5,2.3,> 100,> 100
"NC(=O)c1ncn([C@@H]2O[C@H](CO)[C@@H](O)[C@H]2O)n1 [RBV, ribavirin]",29.9,–,13.4,–,19.6
